Experimental data taken from patent EP1300161A1, “Cationic lipids suitable for gene transfer” (rubitec Gesellschaft für Innovation und Technologie der …, priority 2001, dated 2003).
“Also recorded” adds a separate entry of the source.

What was measured:
COS-7 cell-line [1] = experiment: Lipofection (luciferase reporter) transfection efficiency in COS-7 cells; assay type: cell-based, African green monkey
Excerpt: Screening / Lipofection studies: For a broad and reproducible testing the transfection properties of systematically varied new cationic lipids, we recently have developed an fully automated high throughput system ([…]. et al., J. Biomol. Screening (2001)). This system, which comprises the entire lipofection process from liposome formation to reporter gene assay, allows to identify candidate cationic lipids and to develop suitable lipofection reagents and protocols based on those lipids. Automation of this process was necessary, because manually testing of various cationic lipids or lipid mixtures is extremely labor intensive and high reproducibility can not be guarantied. Goal of this first step was to find the cationic lipid with the best hydrocarbon chain composition for the development of suitable lipofection reagents and protocols. All lipids with different hydrocarbon chains (lipids 1-16, table 1) which are R-configurated and have chloride as counter ion were tested using a standard protocol: From each lipid, eight different lipoplexes containing equimolar amounts of the helper lipid DOPE were formed using different DNA:lipid-charge ratios from 1:1 - 1:15, resulting in a lipofection profile for each lipid (fig. 1). The COS-7 cell-line was used for this first lipofection study because COS-7 is easy to transfect and differences between the lipids are easy to identify. For comparison, the transfection efficiency of the well know cationic lipid DOTAP at its best lipid/DNA charge ration of 2.5 was also determined in each run. Cell culture: The initial transfection screening was carried out using COS-7 cells. The cells were maintained in 96-well culture plates (Greiner, Frickenhausen, Germany) in 200 μl EMEM/10 % FCS/1 % Penicillin-streptomycin in a humidified atmosphere at 37 °C/5 % CO2. […] For the subsequent quantification of transfection efficiency (part 2) a reporter plasmid carrying the firefly luciferase gene under the control of the CMV promoter is used to form lipoplexes. […]

[2] = tested on: mamma carcinoma cell line MDA-MB-468; experiment: Lipofection transfection efficiency in MDA-MB-468 cells; assay type: cell-based
primary dendritic cells = experiment: Lipofection transfection efficiency in primary dendritic cells; assay type: cell-based, human
[3] = Cytotoxicity of lipoplexes (protein content of transfected versus non-transfected cells); assay type: cell-based, African green monkey; conditions: monkey, cos-7 cells; equimolar DOPE, COS-7; read-out: vitality of the cells at maximum transfection efficiency
Protocol: (§1) Goal of this first step was to find the cationic lipid with the best hydrocarbon chain composition for the development of suitable lipofection reagents and protocols. All lipids with different hydrocarbon chains (lipids 1-16, table 1) which are R-configurated and have chloride as counter ion were tested using a standard protocol: From each lipid, […] DNA:lipid-charge ratios from 1:1 - 1:15, resulting in a lipofection profile for each lipid (fig. 1). The COS-7 cell-line was used for this first lipofection study because COS-7 is easy to transfect and differences between the lipids are easy to identify. For comparison, the transfection efficiency of the well know cationic lipid DOTAP at its best lipid/DNA charge ration of 2.5 was also determined in each run. Part 2 (Transfection assays): After lipoplex formation, the robot took the cell culture microtiter plates from an incubator and removed the lid from the plates. Immediately prior to transfection, 100 µl of the culture medium were removed and the lipoplexes were dispensed into the wells (triplicates). The lids were replaced and the MTP were returned to the incubator. […] Assay specific standards and controls were added to the microplates, and luciferase activity and protein content of the lysates were measured. Transfection efficiencies were calculated by dividing luciferase activity by protein content.

COS-7 cell-line [4] = experiment: as above; assay type: cell-based, African green monkey; conditions: Chol as helper lipid, ratio 0.7, chloride
Protocol: as §1

[5] = tested on: mamma carcinoma cell line MCF-7; experiment: Lipofection transfection efficiency in MCF-7 cells; assay type: cell-based
[6] = tested on: polarized cell line MDCK-C7
COS-7 cell-line [7] = experiment: Lipofection (luciferase reporter) transfection efficiency in COS-7 cells; assay type: cell-based, African green monkey; remark: listed apart in the source
[8] = racemic, chloride, 70 mol-% cholesterol, MDA-MB-468
[9] = racemic, chloride, 70 mol-% cholesterol

CCCCCCCCCCCCCCN(CCCCCCCCCCCCCC)CC(O)CO (stereo not shown) [KL-14-analog which was not methylated]
transfection (COS-7 cell-line [1]; not methylated analog): did not transfect at all

CCCCCCCCCCCCCC[N+](C)(CCCCCCCCCCCCCC)CC(O)CO (stereo not shown) [KL-14]
transfection efficiency (comparison within the library) (COS-7 cell-line [1]; R-configurated, chloride, equimolar DOPE, COS-7): most effective; also recorded: highest transfection efficiency
transfection efficiency, DOPE-formulation compared with cholesterol mixture ([2]; equimolar mixture with DOPE, MDA-MB-468): lower
factor by which transfection efficiency is reduced in comparison with COS-7-cells [2, 8]: about 12
transfection efficiency, times higher than for DOTAP [2, 8]: 8
factor by which transfection efficiency is reduced in comparison with COS-7-cells (primary dendritic cells; racemic, chloride, 70 mol-% cholesterol, dendritic cell): about 600
transfection efficiency, fold increase over DOTAP (primary dendritic cells; racemic, chloride, 70 mol-% cholesterol, dendritic cells): 1.5-2
viability [3]: ~70%
toxicity, R- versus S-configuration (COS-7 cell-line [4]): statistically similar
transfection efficiency, DOPE-formulation compared with cholesterol mixture ([5]; equimolar mixture with DOPE): lower
factor by which transfection efficiency is reduced in comparison with COS-7-cells [5, 9]: about 12
transfection efficiency, times higher than for DOTAP [5, 9]: 8
factor by which transfection efficiency is reduced in comparison with COS-7-cells [6]: about 100
transfection efficiency, fold increase over DOTAP [6]: 1.5-2
transfection efficiency, R- versus S-configuration (COS-7 cell-line [7]; Chol as helper lipid, ratio 0.7, chloride): statistically similar
Chol/KL-14 ratio giving highest transfection efficiency (COS-7 cell-line [7]; Cholesterol as helper lipid): 0.5-0.7
transfection efficiency (COS-7 cell-line [7]; Cholesterol as helper lipid, Chol/KL-14 ratios 0.3 - 1.2, compared with DOPE mixtures): always higher than for the mixtures of KL-14 with DOPE
transfection efficiency (COS-7 cell-line [7]; DOPE as helper lipid, DOPE/KL-14 ratio 0.3 to 1.2): very high
transfection efficiency as % of the chloride values (COS-7 cell-line [7]; racemic, counter ion acetate, cholesterol/KL-14 ratio 0.7): 57%
transfection efficiency (comparison of counter ions) (COS-7 cell-line [7]; racemic, counter ion chloride, cholesterol/KL-14 ratio 0.7): highest transfection efficiency
transfection efficiency as % of the values found for chloride (COS-7 cell-line [7]; racemic, counter ion methylsulfate, cholesterol/KL-14 ratio 0.7): 70-75%
transfection efficiency as % of the values found for chloride (COS-7 cell-line [7]; racemic, counter ion sulfate, cholesterol/KL-14 ratio 0.7): 70-75%
transfection efficiency as % of that of the standard lipid DOTAP (COS-7 cell-line [7]; without helper lipids): 70%

CCCCCCCC/C=C\CCCCCCCC(=O)OCC(C[N+](C)(C)C)OC(=O)CCCCCCC/C=C\CCCCCCCC (stereo not shown) [DOTAP, N-(1(2,-dioleyoyl)propyl)-N,N,N-trimethylammonium chloride, reference compound]
transfection efficiency (COS-7 cell-line [1]; COS-7, lower line): 466,72 +/- 320,44 (11) rlu/µg protein/ml
transfection efficiency ([2]; MDA-MB468, lower line): 92,58 +/- 82,86 (9) rlu/µg protein/ml
transfection efficiency (primary dendritic cells; DC 5day, lower line): 3,18 +/- 5,87 (3) rlu/µg protein/ml
transfection efficiency ([5]; lower line): 101,65 +/- 93,42 (7) rlu/µg protein/ml
transfection efficiency [6]: 26,64 +/- 3,33 (2) rlu/µg protein/ml
